The values that follow come from patent US9388126B2, “Sigma receptor ligands and methods of modulating cellular protein homeostasis using same” (Drexel University, priority 2012, dated 2016).

The subject of assay [1] is MDA-MB-468 cells. The assay can be described thus: Cell size by flow cytometry (mean FSC-H, G1 phase). Type of assay: cell-based, human. The following applies: 10 μM. On the procedure:
FIG. 11 is a graph illustrating decrease in MDAMB468 cell size associated with the Sigma1 antagonist treatment. MDA-MB-468 cells were treated for 24 hours with DMSO (control), 10 μM IPAG (antagonist), or 10 μM PRE084 (agonist). Cell size was quantitated by flow cytometry, using a Becton Dickinson FACS Calibur flow cytometer with Cell Quest software. The mean forward scatter height (FSC-H) of the G1-phase population was determined as a measure of relative cell size. Single cells were gated away from aggregated cells using an FL2-width versus FL-2 area dot plot. Mean FSC-H±S.E. was calculated from at least 4 independent determinations. For each FSC-H determination, FACS analysis was performed on 10,000 single cells. The mean FSC-H of DMSO (control) and PRE084 treated MDA-MB-468 measured 370±6 and 372±7, respectively, whereas the mean FSC-H of IPAG treated MDA-MB-468 cells was 323±4. ** P<0.01 for IPAG compared to DMSO and IPAG compared to PRE084.
FIG. 31A is a differential interference contrast (DIC) image of MDA-MB-468 breast adenocarcinoma cells treated for ˜20 hours with DMSO (drug vehicle control), 10 μM IPAG (antagonist) or 10 μM PRE084 (agonist). A twenty-micron bar is shown in each image. Data are presented as mean±SEM. FIG. 31B is a graph illustrating the finding that IPAG diminished the mean cell size (FSC-H) of MDA-MB-468 breast tumor cells in a time-responsive manner. The mean FSC-H of 370±5 at to decreased to 323±4 after 24 hours of IPAG treatment and to 267±2 after 48 hours of treatment. Two-tailed t-tests were performed to determine statistical significance. For IPAG treatment compared to control (DMSO) and Sigma agonists (SKF and PRE084), P=0.0002 at d1 and P=0.00013 at d2. Data were generated from three to five independent determinations for each time-point. […] T-47D were treated for 24 h with 1 and 10 μM IPAG, and mean FSC-H was measured. […] For FIGS. 31B-31E, the mean FSC-H was determined for each cell cycle population (i.e., G1, S, G2/M), and data is shown for G1 phase cells. […]
A general note: Flow cytometry measures light scatter and fluorescence of single cells or particles in a stream.

The subject of assay [2] is HER2/3 in SkBr-3 cells. The assay can be described thus: HER2 and HER3 level immunoblots. The format is cell-based, human. The following applies: 10 μM for 1-to-24 hours; 1, 3, 10, 20 μM for 12 hours. The text has this:
FIG. 67, comprising FIGS. 67A-67F, illustrates the finding that Sigma1 ligands may be used to modulate (in this case, decrease) the levels of growth factor receptors such as HER2 and HER3 in breast cancer cells, in the absence of detectable cell death. […] Short exposure to IPAG or lower dosage induces ubiquitin-mediated autophagosomal degradation of HER2/3. Prolonged IPAG treatment or higher dosage caused translational arrest. […] FIG. 67A is a set of immunoblots of HER2 following treatment with IPAG. Detergent soluble whole-cell lysates were solved by denaturing SDS-PAGE. (i) 1-to-24 hour (h) treatment with 10 μM IPAG or 11 μM thapsigargin (TG). (ii) Following 12 hour treatment with 1, 3, 10, 20 μM IPAG. FIG. 67B is a set of immunoblots of HER3 following treatment with IPAG. Detergent soluble whole-cell lysates were solved by denaturing SDS-PAGE. (i) 1-to-24 hour (h) treatment with 10 μM IPAG or 1 μM thapsigargin (TG). (ii) Following 12 hour treatment with 1, 3, 10, 20 μM IPAG. FIG. 67C is a set of immunoblots of detergent soluble whole-cell lysates solved by denaturing SDS-PAGE. […] (iii) Quantification of bands in (i). […] (ii) Quantification of HER3 band in DMSO (vehicle control) treated conditions. (iii) Quantification of HER3 band in IPAG treated conditions.
Background: A western blot detects proteins with antibodies after separation by electrophoresis.

As for `N=C(Nc1ccc(I)cc1)NC1C2CC3CC(C2)CC1C3` (stereo not drawn) [IPAG, 1-(4-iodophenyl)-3-(2-adamantyl)guanidine], the “mean FSC-H (relative cell size)” value in assay [1] (24 hours) is 323±4; in assay [1] (48 hours) it was 267±2. In assay [2], the “levels of HER2/3” value was “time and dose-dependently causes decreased levels of HER2/3”.
